Patent publication US9643933B2, “Compounds useful as antibiotic tolerance inhibitors” (priority 2013, dated 2017)
Where a name gives a salt, the structure may show the parent alone.

Legend:
[1] = system: PQS; assay: PQS Inhibition Assay (24 Hour Incubation); type: cell-based, P. aeruginosa PA14 wild-type strain; conditions: Pseudomonas aeruginosa, PA14, 24 h, read-out: PQS (24 hr) IC50 (μM)
Experimental: Test compounds are dissolved in DMSO at 10 mM and stored at −20° C. until needed. Seven test concentrations from 0.0032 micromolar to 31.6 micromolar are used for each compound. P. aeruginosa PA14 wild-type strain is inoculated into 5 mL LB broth in a 15-mL sterile glass culture tube and incubated overnight at 37° C. under shaking (˜240 rpm). The overnight culture is then diluted in LB Broth to give an OD600=0.04 (T0 culture). Colony Forming Units (CFU)/mL of the overnight culture and T0 culture are determined by a series of 1:10 serial dilutions in sterile saline. 4×20 μL of each dilution is seeded on LB agar plates and incubated at 35±2° C. for 20 hours. CFU/mL is determined from the dilution that gives 2 to 50 colonies/20 μL.
For concentration response curve (CRC) experiments, internal standard (2-((5-nitro-1H-indol-2-yl)thio)-N-(4-phenoxyphenyl)acetamide)) and test compounds are serially diluted in DMSO to give 200 times of each final concentration (0.5% DMSO final), and 1 μL/well is dispensed in duplicate into 2-mL wells of a 96 well deep well plate. 200 μL/well of T0 culture is added to each internal standard/test compound well used to determine PQS control level. Wells containing only LB broth (blank wells) are also included in the plate.
The plate is sealed and incubated at 37° C. for 24 hours under shaking (˜700 rpm) using a microtiter shaker. At the end of the incubation period, 150 μL/well of the deep well plate culture are transferred in a new non-sterile plate, and 150 μL/well of methanol containing tetra-deuterated PQS (D4-PQS) and 2% acetic acid are added to each well. The plate is sealed, shaken at high speed for 5 minutes and centrifuged at 4,000 g for 40 minutes at room temperature. 100 μL/well of the supernatant is then transferred to glass vials (vials crimp 0.2 mL) and kept at 4° C. until LC-MS/MS analysis.
PQSs quantification is carried out by analyzing samples in discrete batches together with spiked standards and blank samples.
Calibration curves are constructed from PQS standards, and respective deuterated PQS is used as an Internal Standards (IS) to calculate the concentration of analytes in the sample and improve the precision of the assay. The back-calculated concentrations of the calibration standards from the calibration curve shall be within ±20% of the nominal values, the range of the analytical method is determined, and the lower and upper limit of quantification specified.
Liquid chromatography separations are performed using an Agilent HP1100 system (Agilent Technologies) coupled with a CTC PAL Autosampler (CTC Analytics AG). Chromatographic retention is obtained using a monolithic column (Chromolith® RP-18, 50×4.6 mm). The solvent system consists of water containing 0.1% (v/v) formic acid (A) and acetonitrile containing 0.1% (v/v) formic acid (B). The gradient elution profile is chosen as follows: 0 min: 70% A (1500 μL/min), 0.3 min: 70% A (1500 μL/min), 1.3 min: 5% A (2500 μL/min), 1.6 min: 5% A (2500 μL/min).
The MS/MS analysis is performed with an API4000 series mass spectrometer (AB Sciex™) operating in Multiple Reaction Monitoring (MRM) mode and equipped with a TIS ion source. The specific ions monitored are PQS (m/z 260→m/z 175) and D4-PQS (m/z 264→m/z 179). The computer systems used in this study to acquire and quantify data may be an Analyst™ v1.5.
PQS in the presence of different concentrations of test compound are expressed as percentage of inhibition of the basal level in control samples. Curve fitting and IC50 estimations are carried out using a four parameter logistic model using GraphPad Prism v.5 program.

[2] = system: Pyocyanin; assay: Pyocyanin Inhibition Assay; type: cell-based, P. aeruginosa, strain PA14; conditions: Pseudomonas aeruginosa, PA14, 24 h, read-out: Pyocyanin Inhibition No. IC50 (μM)
Experimental: Test compounds are dissolved in DMSO at 10 mM and stored at −20° C. until needed. Seven test concentrations from 0.0032 micromolar to 31.6 micromolar are used for each compound.
P. aeruginosa, strain PA14, is inoculated into 5 mL of LB broth in a 15-mL sterile glass culture tube and incubated overnight at 37° C. under shaking (˜240 rpm). The overnight culture is then diluted in LB Broth to give an OD600=0.04 (T0 culture). Colony Forming Units (CFU)/mL of the overnight culture and T0 culture are determined by a series of 1:10 serial dilutions in sterile saline. 4×20 μL of each dilution is seeded on LB agar plates and incubated at 35±2° C. for 20 hours. CFU/mL is determined from the dilution that gives 2 to 50 colonies/20 μL.
For concentration response curve (CRC) experiments, internal standard, 2-((5-nitro-1H-indol-2-yl)thio)-N-(4-phenoxyphenyl)acetamide, a compound previously identified as an MvfR inhibitor (see Example 1 of US 2014-0066454 (WO 2012/116010)), and test compounds are serially diluted in DMSO to 200 times each final concentration (0.5% DMSO fmal), and 1 μL/well is dispensed in duplicate into 2 mL wells of a 96-well deep well plate. 200 μL/well of T0 culture are added to each internal standard/test compound well. Wells containing only T0 culture (200 200 μL/well) are used to determine pyocyanin control level and wells containing only LB broth (blank wells) are also included in the plate.
The plate is sealed and incubated at 37° C. under shaking (˜700 rpm) using a microtiter shaker for 24 hours. At the end of the incubation period, the plate is centrifuged at 4,000 g for 40 minutes at room temperature, 100 μL/well of the supernatant is transferred to a 96-microtiter PS flat-bottom plate, and absorbance at 690 nm is determined using SPECTROstar® Nano microplate reader. Pyocyanin concentration (M) is determined using the equation C=A690/(ε×d), where ε is the Pyocyanin extinction coefficient, at A690 nm ε is 4,310 M^−1 cm^−1 and d is the experimentally derived pathlength. The level of pyocyanin in the presence of test compound is expressed as percentage of inhibition with respect to the control. Curve fitting and IC50 determination were carried out using a four-parameter logistic model using GraphPad Prism v.5.

O=C(CSc1nc2cc(Cl)ccc2[nH]1)Nc1ccc(Oc2ccncc2)cc1 [Compound 76, 2-((5-chloro-1H-benzo[d]imidazol-2-yl)thio)-N-(4-(pyridin-4-yloxy)phenyl)acetamide]
IC50 [1]: < 1 µM
IC50 [2]: < 0.1 µM

N#Cc1ccc(NC(=O)COc2nc3ccc([N+](=O)[O-])cc3[nH]2)cc1 [Compound 149, N-(4-cyanophenyl)-2-((6-nitro-1H-benzo[d]imidazol-2-yl)oxy)acetamide]
IC50 [1]: > 10 µM
IC50 [2]: 1 to 10 µM

O=C(CSc1nc2cc(Cl)ccc2[nH]1)Nc1ccc2c(c1)OCO2 [Compound 139]
IC50 [1]: > 10 µM
IC50 [2]: 1 to 10 µM

O=C(CSc1nc2cc(Cl)ccc2[nH]1)Nc1ccc(Oc2cnccn2)cc1 [Compound 78, 2-((5-chloro-1H-benzo[d]imidazol-2-yl)thio)-N-(4-(pyrazin-2-yloxy)phenyl)acetamide]
IC50 [1]: < 1 µM
IC50 [2]: < 0.1 µM

N#Cc1ccc(NC(=O)CSc2nc3ccc(-n4cccn4)cc3[nH]2)cc1 [Compound 117]
IC50 [1]: > 10 µM
IC50 [2]: 1 to 10 µM

O=C(CCc1nc2ccc(Cl)cc2o1)Nc1ccc(Oc2cccnc2)cc1 [Compound 92, 3-(6-chlorobenzo[d]oxazol-2-yl)-N-(4-(pyridin-3-yloxy)phenyl)propanamide]
IC50 [1]: > 10 µM
IC50 [2]: > 10 µM

O=C(NCCSc1nc2cc(Cl)ccc2[nH]1)c1ccc(Oc2cccnc2)cc1 [Compound 87, N-(2-((5-chloro-1H-benzo[d]imidazol-2-yl)thio)ethyl)-4-(pyridin-3-yloxy)benzamide]
IC50 [1]: > 10 µM
IC50 [2]: > 10 µM

O=C(CSc1nc2cc(OC(F)F)ccc2[nH]1)Nc1ccc(Cl)cc1 [Compound 95]
IC50 [1]: > 10 µM
IC50 [2]: 1 to 10 µM

N#Cc1ccc(NC(=O)CNc2nc3cc(Cl)ccc3o2)cc1 [Compound 75, 2-((5-chlorobenzo[d]oxazol-2-yl)amino)-N-(4-cyanophenyl)acetamide]
IC50 [1]: > 10 µM
IC50 [2]: > 10 µM

O=C(CNc1nc2ccccc2[nH]1)Nc1ccc(Oc2cccnc2)cc1 [Compound 151]
IC50 [1]: > 10 µM
IC50 [2]: > 10 µM

Cc1cc(F)ccc1NC(=O)CNc1ccc(C#N)cc1 [Compound 154]
IC50 [1]: > 10 µM
IC50 [2]: > 10 µM

N#Cc1ccc(NC(=O)CCc2nc3ccc([N+](=O)[O-])cc3[nH]2)cc1 [Compound 148, N-(4-cyanophenyl)-3-(6-nitro-1H-benzo[d]imidazol-2-yl)propanamide]
IC50 [1]: 5 to 10 µM
IC50 [2]: 1 to 10 µM

N#Cc1ccc(NC(=O)CSc2cc3cc(Cl)ccc3[nH]2)cc1 [Compound 90, 2-((5-Chloro-1H-indol-2-yl)thio)-N-(4-cyanophenyl)acetamide]
IC50 [1]: > 10 µM
IC50 [2]: 1 to 10 µM

CN(C)C(=O)Oc1ccc2[nH]c(SCC(=O)Nc3ccc(Cl)cc3)nc2c1 [Compound 136]
IC50 [1]: > 10 µM
IC50 [2]: > 10 µM

N#Cc1cccc(NC(=O)CSc2nc3cc(Cl)ccc3[nH]2)c1 [Compound 138]
IC50 [1]: > 10 µM
IC50 [2]: > 10 µM

O=C(COc1nc2ccc([N+](=O)[O-])cc2[nH]1)Nc1ccc(Cl)cc1 [Compound 150, N-(4-chlorophenyl)-2-((6-nitro-1H-benzo[d]imidazol-2-yl)oxy)acetamide]
IC50 [1]: > 10 µM
IC50 [2]: 1 to 10 µM

O=S(=O)(CSc1nc2cc(Cl)ccc2[nH]1)Nc1ccc(Oc2cccnc2)cc1 [Compound 91, 1-((5-chloro-1H-benzo[d]imidazol-2-yl)thio)-N-(4-(pyridin-3-yloxy)phenyl)methanesulfonamide]
IC50 [1]: > 10 µM
IC50 [2]: > 10 µM

Cc1cc(NCC(=O)Nc2ccc(C#N)c(Cl)c2)ccc1Br [Compound 153]
IC50 [1]: > 10 µM
IC50 [2]: > 10 µM

N#Cc1ccc(NC(=O)CSc2nc3cc(C(=O)O)ccc3[nH]2)cc1 [Compound 106]
IC50 [1]: > 10 µM
IC50 [2]: > 10 µM

O=C(CNc1cccc(F)c1)Nc1cccc(Oc2ccccc2)c1 [Compound 158]
IC50 [1]: > 10 µM
IC50 [2]: > 10 µM

N#Cc1ccc(NCC(=O)Nc2ccc(F)c(F)c2)nc1 [Compound 157]
IC50 [1]: > 10 µM
IC50 [2]: > 10 µM

N#Cc1ccc(NC(=O)CNc2ccc(F)cc2)cc1 [Compound 155]
IC50 [1]: > 10 µM
IC50 [2]: > 10 µM

COc1ccc(NC(=O)CSc2nc3c(Cl)cc(Cl)cc3[nH]2)cc1 [Compound 141]
IC50 [1]: > 10 µM
IC50 [2]: 1 to 10 µM

N#Cc1ccc(NC(=O)CNc2ccc(Cl)cc2)cc1 [Compound 156]
IC50 [1]: > 10 µM
IC50 [2]: > 10 µM

O=C(CCc1nc2ccc([N+](=O)[O-])cc2[nH]1)Nc1ccc(Cl)cc1 [Compound 134, N-(4-chlorophenyl)-3-(6-nitro-1H-benzo[d]imidazol-2-yl)propanamide hydrochloride]
IC50 [1]: 1 to 5 µM
IC50 [2]: 1 to 10 µM

Cn1c(SCC(=O)Nc2ccc(Oc3ccccc3)cc2)nc2cc([N+](=O)[O-])ccc21 [Compound 23]
IC50 [1]: > 10 µM
IC50 [2]: 1 to 10 µM

Cc1ccc(Oc2ccc(NC(=O)CSc3nc4cc(Cl)ccc4[nH]3)cc2)cn1 [Compound 80, 2-((5-chloro-1H-benzo[d]imidazol-2-yl)thio)-N-(4-((6-methylpyridin-3-yl)oxy)phenyl)acetamide]
IC50 [1]: < 1 µM
IC50 [2]: < 0.1 µM

CN(C)C(=O)Oc1ccc2[nH]c(SCC(=O)Nc3ccc(C#N)cc3)nc2c1 [Compound 135]
IC50 [1]: > 10 µM
IC50 [2]: > 10 µM

N#Cc1ccc(C(=O)NCCSc2nc3cc(Cl)ccc3[nH]2)cc1 [Compound 88, N-(2-((5-chloro-1H-benzo[d]imidazol-2-yl)thio)ethyl)-4-cyanobenzamide]
IC50 [1]: > 10 µM
IC50 [2]: > 10 µM

O=C(CSc1nc2ccc(Cl)cc2[nH]1)Nc1ccc(F)cc1F [Compound 144]
IC50 [1]: > 10 µM
IC50 [2]: 1 to 10 µM

N#Cc1ccc(NC(=O)CNc2nc3cc(Cl)ccc3s2)cc1 [Compound 72, 2-(5-Chlorobenzo[d]thiazol-2-ylamino)-N-(4-cyanophenyl)acetamide]
IC50 [1]: > 10 µM
IC50 [2]: > 10 µM
